Data on 88 compounds can be found in a melting point compilation (Tetko et al.; mined from patent text by program, amines drawn as free bases though some values may be those of a salt).

`COc1cc(=O)n(-c2cccc(C(F)(F)F)c2)nc1C(=O)N(C)OC` displayed a melting point of 127 to 129 °C. Consider `CCc1cc(=O)c2nc(Cl)ccc2[nH]1`, for which the melting point was in the range of 269 to 270 °C. In turn, `Cc1ccc(N2C(=O)C(O)=C(C(=O)c3ccc(C(C)C)cc3)C2c2ccc(Oc3ccccn3)cc2)nn1` (stereo not drawn) came in with a melting point of 280 °C. Compound `CC(C)(CC/C=C\[C@@H]1C[C@@H](NS(=O)(=O)c2ccc(Cl)cc2)CN1S(=O)(=O)c1ccc(Cl)cc1)C(=O)O` gave a melting point of 159 to 160 °C. In turn, `CSc1nccc(CC(=O)c2ccc(Cl)cc2Cl)n1` registered a melting point of 105 to 107 °C. As for `C=CCN(CC=C)c1nc(NC(=O)Cc2ccccc2)n2oc(=O)nc2n1`, the melting point lay in the range of 165 to 167 °C. On to `CC(=O)Nc1nc2c(C)cnc(-c3cccc([N+](=O)[O-])c3)n2n1`, for which the melting point was 245 to 247 °C.

`COc1ccc(-c2cc(-c3nc(C)cs3)c(=O)n(C)c2-c2ccnnc2)cc1` had a melting point of 271 °C. The compound `CCOC(=O)c1c(C(F)(F)F)[nH]cc(-c2cc(OC(C)C)c(Cl)cc2F)c1=O` yielded a melting point of 118 to 119 °C. In turn, `Cc1ccc(Cl)c2c1[nH]c1c(C(=O)O)cccc12` displayed a melting point of 303 °C. `COc1nc2ccccc2c2c1ncn2CC(O)CO` (stereo not drawn) came in with a melting point of 214 to 216 °C. For the compound `CC(C)(C)COC(=O)Oc1cc(Cl)nnc1-c1ccc(Br)cc1`, the melting point is 114 to 116 °C.

Turning to `Cc1cc(Oc2cc(C(F)(F)F)nn2C)nc(C(=O)Nc2ccc(F)cc2)c1`, the melting point came out at 133 °C. `Nc1nc(N)c(CCCC(CO)c2ccc(C(=O)N[C@@H](CCC(=O)O)C(=O)O)cc2)c(O)n1` (stereo partly drawn) registered a melting point of 164 °C. On to `O=C(N1CCN(c2ccccc2)CC1)N1CC(Oc2ccc(Br)cc2)C1`, for which the melting point lay in the range of 160 to 161 °C. In the case of `Nc1ccc(S(=O)(=O)Nc2cccc3c(Cl)c[nH]c23)cc1` it was 174 to 176 °C. As for `COC(=O)/C(=C/C=C/c1ccc2ccccc2n1)OC`, the melting point was found to be 88 °C.

Take `COCn1nc(N)c2cc(S(=O)(=O)C(C)C)cc(OCCc3ccccn3)c21`: the melting point is 140 to 142 °C.

Compound `O[C@H]1CN(Cc2ccccc2)CC[C@@H]1c1ccc(Br)cc1` (racemic) showed a melting point of 125 to 129 °C. Compound `CCCc1ccc(Cc2cccc(NC(N)=O)c2)n1CCC` came in with a melting point of 123 to 126 °C. Turning to `CC(C)CN(Cc1ccccc1)c1ncnc2nc[nH]c12`, the melting point lay in the range of 160 to 162 °C.

In turn, `CC(OC1CCCN(Cc2n[nH]c(=O)[nH]2)C1c1ccccc1)c1cc(C(F)(F)F)cc(C(F)(F)F)c1` (stereo not drawn) showed a melting point of 214 to 215 °C. The figure for `CN1C(=O)CN(c2ccccc2)C1=O` is 168 to 170 °C; for `N[C@H]1CCCC[C@H]1CCC(O)(P(=O)(O)O)P(=O)(O)O` (relative stereo) it is 131 to 133 °C. Regarding `O=C(O)[C@H](Cc1ccc(OCc2ccccc2)cc1)NS(=O)(=O)c1ccc(N2CCC(c3ccccc3)CC2)cc1`, the melting point was 75 to 78 °C. For the compound `CCNc1nc(SC)ncc1CNc1cc(OC)cc(OC)c1`, the melting point is 100 to 105 °C. In turn, `O=C(O)CCc1ccc2c(c1)OCO2` returned a melting point of 86.1 to 88.3 °C. As to `CN(C)c1cc(Br)cc(Sc2ccc([N+](=O)[O-])cc2)c1`, the melting point lay within 102 to 104 °C. Turning to `COc1ccc(C)cc1C(=O)NCCc1ccc(CC(=O)O)cc1`, the melting point was 148 to 150 °C. In turn, `CCNc1cncc(C#N)c1` yielded a melting point of 110 °C.

For `Cc1nn(-c2ccccn2)c2ncc(C(=O)NCc3ccccc3)c(O)c12`, the melting point was above 300 °C. The compound `C=CCNc1cc(Cl)nnc1Cl` yielded a melting point of 95 to 98 °C. `Cn1nc(-c2ccc(Cl)cc2)n(Cc2ccccc2)c1=O` came in with a melting point of 90 to 91 °C. The compound `Cc1ccc(OC2CCN(C(=O)C(=O)Nc3ccc4[nH]c(=O)sc4c3)CC2)cc1` had a melting point of 215 to 217 °C. With `CCN1C(=O)C(C(=O)Nc2ccc(F)cc2)c2cc3c(cc21)C=CCO3` (stereo not drawn), the melting point was in the range of 212 to 214 °C.

Take `CS(=O)(=O)c1ccc(-c2cnn(-c3ccc(F)c(F)c3)c(=O)c2Oc2ccc(F)cc2)cc1`: the melting point lay within 178 to 180 °C.

For `COC(=O)Cc1cn(-c2ccccc2)nc1OCc1ccccc1`, the melting point lay in the range of 74 to 75 °C. In the case of `CCOC(OCC)c1nc(C2CC2)nc(N)c1Cl` it was 104 to 110 °C; in that of `CC(=O)Nc1ccc(CCC2(c3ccccc3)CC(O)=CC(=O)O2)cc1` (stereo not drawn), 155 to 160 °C.

In turn, `CCN1C2=C(CSC2)C(=O)Nc2ccccc21` showed a melting point of 195 to 197 °C. In the case of `COc1ccc(NC(C)=O)c(OC)c1-c1ccc(C[C@H](NC(=O)c2c(Cl)cccc2Cl)C(=O)O)cc1` it was 244 to 245 °C; in that of `COC[C@H]1CCCN1S(=O)(=O)c1ccc2c(c1)C(=O)C(=O)N2`, 161 to 164 °C. Consider `C=CC(OC(C)OCC)C(NC(=O)OC(C)(C)C)c1ccccc1` (stereo not drawn), for which the melting point fell in the range of 66 to 72 °C.

`Cc1nc2c(N)nc3c(c2n1CCCCNC(=O)N1CCOCC1)CCCC3` gave a melting point of 134 to 135 °C. The figure for `CCOC(=O)C(C)(C)Oc1ccc(OCCn2c(=O)sc3cc(C(=NO)c4ccccc4)ccc32)cc1` is 60 to 62 °C. In the case of `O=C(NO)c1ccc2c(c1)CN(C(=O)c1ccc3[nH]ccc3c1)CC2` it was 252 °C. In turn, `CC(=O)Nc1cccc(-c2ccccc2S(=O)(=O)Nc2onc(C)c2C)c1` yielded a melting point of 168 to 171 °C.

With `CC(Cc1ccccc1)(NC=O)c1ccccc1` (stereo not drawn), the melting point is 97 to 99 °C. As to `CC(C)c1cc(O)n[nH]1`, the melting point lay within 189 to 193 °C.

`Cc1oc(-c2ccccc2)nc1CCOc1ccc(C[C@@H](C(=O)O)N2CCN(S(=O)(=O)c3ccc([N+](=O)[O-])cc3)CC2)cc1` showed a melting point of 205 to 207 °C. Consider `Cc1c(-c2c(F)cc(Cl)c(=O)n2C)nn(C)c1C#N`, for which the melting point was 190 to 191 °C. For `Cc1ccc(-c2c(CNC(=O)OC(C)(C)C)[nH]c(=O)c3ccc(C#N)cc23)cc1`, the melting point lay within 156 to 157 °C. For the compound `CC(C)(C)NC(=O)N1CCn2c(Cl)c(-c3ccccc3)c(C(N)=O)c2C1`, the melting point lay within 192 to 195 °C. With `O=c1[nH]c2ccncc2c2nc(-c3ccco3)nn12`, the melting point fell in the range of 312 to 313 °C. For the compound `CCOC(=O)c1ccc(NC(=O)C(CSC(C)=O)Cc2ccccc2)cc1` (stereo not drawn), the melting point was in the range of 119 to 121 °C. Compound `CCOC(=O)c1ncn2c(-c3ccccc3)ccnc12` had a melting point of 200 to 204 °C. The figure for `CC(C)c1nn(-c2ccc(C(F)(F)F)cn2)cc1CCCOc1c(F)cccc1CC(=O)O` is 140 to 141 °C. Regarding `ON1CCC2(CC1)OC(c1ccccc1)c1ccccc12` (stereo not drawn), the melting point was in the range of 184 to 187 °C. The figure for `CC(C)(OCCOCc1nn(Cc2ccccc2)c2ccccc12)C(=O)O` is 94 to 95 °C; for `O=C1N(Cc2nsc(Cl)n2)c2cccc(Cl)c2C12COc1cc3c(cc12)OCO3` (stereo not drawn) it is 174 to 176 °C. In the case of `CC1(C)C(=O)N(c2ccc(C#N)c(C(F)(F)F)c2)C(=O)N1CCCCO` it was 102 to 103 °C; in that of `COc1ccc(-c2[nH]nc3c2C(=O)c2c(NC(=O)NNC(=O)c4ccccc4)cccc2-3)cc1`, above 300 °C. The compound `O=C1CCCc2nc3ccccc3c(NCc3ccc(C(F)(F)F)cc3)c21` displayed a melting point of 174 to 176 °C. In the case of `CCc1nc(-c2cccc(C)c2)c(-c2ccnc(N)c2)s1` it was 144 to 146 °C. The compound `CCC=C(Cc1ccc(Cl)cc1Cl)n1cncn1` returned a melting point of 127 °C. `O=C(Nc1c([N+](=O)[O-])cnn1-c1c(Cl)cc(S(=O)(=O)C(F)(F)F)cc1Cl)C(Cl)Cl` came in with a melting point of 138 to 142 °C.

On to `CC1(C)CC(=O)C2=C(C1)NC1=C(C(=O)CC(C)(C)C1)C2c1cccc(Oc2cc(Cl)cc(Cl)c2)c1`, for which the melting point is 254 to 255 °C. Turning to `CCOC(=O)C(C)N1C(=O)C(C)Oc2c(N3CCOCC3)nc(C)nc21` (stereo not drawn), the melting point was 80 to 82 °C. `Cc1oc(-c2ccc(C(F)(F)F)cc2)nc1-c1ccc(Br)cc1` yielded a melting point of 82.8 °C.

`S=C(Nc1ccc(Br)cn1)N[C@@H]1C[C@@H]1c1ccccc1` gave a melting point of 192 to 193 °C. In the case of `CCc1ccc(S(=O)(=O)NC(C)(C)C)s1` it was 38 °C.

On to `COC(=O)c1cc(-c2ccc(OC)cc2)nn(CC(=O)Nc2ccc(SC)cc2)c1=O`, for which the melting point is 130 to 132 °C. For the compound `Cn1cc(NC(=O)c2cc(NC(=O)c3cc([N+](=O)[O-])cn3C)cn2C)cc1C(=O)NCCN1CCOCC1`, the melting point was above 230 °C.

Turning to `CC(C)(C)OC(=O)N1CCN(c2ccc3c(c2)-n2c(nc4ccccc4c2=O)C3=O)CC1`, the melting point lay in the range of 226 to 228 °C. Compound `Nc1c(Cl)cc(C(=O)O)c2c1CCO2` displayed a melting point of 258 °C. `O=S(=O)(c1ccc(N2CCNCC2)cc1)n1ccc2cc(F)ccc21` had a melting point of 77 to 78 °C.

For `CC(C)CNc1cc[nH]c(=S)c1C#N`, the melting point was in the range of 117 to 119 °C. As to `CC(C)(C(=O)NC(Nc1c(Nc2cccnc2)c(=O)c1=O)C(C)(C)C)c1ccccc1` (stereo not drawn), the melting point lay in the range of 247 to 248 °C. `O=C(O)CNC(=O)c1nc2ccc(NCCCN3CCC(OC(c4ccccc4)c4ccccc4)CC3)nn2n1` gave a melting point of 256 to 258 °C.

Compound `COC(=O)[C@H](CN1CCC(=C2c3ccccc3C=Cc3ccccc32)CC1)NC(=O)OCc1ccccc1` showed a melting point of 116 to 119 °C. The figure for `N#Cc1ccc(C(=O)c2ccc(S)cc2)cc1` is 156 °C; for `COC(=O)C1=C(C)NC(C)=C(C(=O)OCC(C)C)C1c1cccc2nonc12` (stereo not drawn) it is 148 to 158 °C. Turning to `O=CNc1ccccc1-c1cc2ccccc2[nH]1`, the melting point was 147 to 149 °C. `CCOC(=O)C1=Cc2cc(C(F)(F)C(F)(F)F)ccc2OC1C(F)(F)F` (stereo not drawn) gave a melting point of 162 to 165 °C. As to `CC(C)c1cc(OCCN2CCOCC2)cc2c1C(=O)N(COc1cc(=O)n3cccc(OCCCN4CCOCC4)c3n1)S2(=O)=O`, the melting point was 145 to 150 °C. In the case of `CC(C)(C)C1(O)CCCCC1`, the melting point lay in the range of 49 to 50 °C. Take `O=C(c1ccc(Cl)cc1)c1ccc([N+](=O)[O-])cc1`: the melting point is 97 to 98 °C. Turning to `Nc1nnc(-c2ccc3ncn(-c4cccc(OC(F)(F)F)c4)c3c2)o1`, the melting point was 215 to 216 °C.

Broadly, the melting point is the temperature, or range, at which the solid turns liquid.
